Reference: patent publication US20040219607A1, “Ligand screening and design by X-ray crystallography” (priority 1998, published 2004)
Read-outs that look alike come from different tables or passages of the source.

Legend:
[1] = molecular target: μUK (Homo sapiens, UniProt P00749, C299A/N322Q); details: for binding at the urokinase active site seen in Fo-Fc electron density map: crystal soaked in mixture of 6 to 7 compounds, 3.3 to 5.2 mM each, compound 31 soaked individually
[2] = molecular target: T1, human urokinase (μUK) (Homo sapiens, UniProt P00749, C299A/N322Q); assay: Urokinase inhibition constants by S-2444 chromogenic activity; assay type: biochemical
T1 construct: μUK (UK amino acids Ile^159-Lys^404 that contain Ala^279Gln^302); made in house; host or cells: baculovirus-infected High-Five insect cells or Pichia pastoris GS115 (secreted)
Protocol: Assays were completed at both pH 6.5 (0.1 M NaPO4) and 7.4 (50 mM Tris).

[3] = pKa of CrystaLEAD hits
[4] = Oral bioavailability in the rat; details: in vivo, 10 mg/kg dose
[5] = molecular target: VanX (Enterococcus faecium, UniProt Q06241); assay: CrystaLEAD crystallographic screening of VanX crystals; details: crystals soaked in mixtures of 7-10 compounds
VanX, sequence (Q06241 whole entry): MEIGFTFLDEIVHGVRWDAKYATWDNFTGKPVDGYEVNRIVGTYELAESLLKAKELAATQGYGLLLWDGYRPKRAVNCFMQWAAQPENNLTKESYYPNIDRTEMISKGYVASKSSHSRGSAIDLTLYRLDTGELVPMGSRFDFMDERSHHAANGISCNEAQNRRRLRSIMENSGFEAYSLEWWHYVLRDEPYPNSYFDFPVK

[6] = molecular target: T2, ErmC′ (Bacillus subtilis, UniProt P13956); assay: CrystaLEAD crystallographic screening of ErmC′ crystals; assay type: binding; details: adenosine library, mixtures of 8-9 compounds
T2 construct: made in house; host or cells: E. coli BL21(DE3)/pLysS with pTERM31 (pET24+ derivative)
T2 sequence (P13956 whole entry): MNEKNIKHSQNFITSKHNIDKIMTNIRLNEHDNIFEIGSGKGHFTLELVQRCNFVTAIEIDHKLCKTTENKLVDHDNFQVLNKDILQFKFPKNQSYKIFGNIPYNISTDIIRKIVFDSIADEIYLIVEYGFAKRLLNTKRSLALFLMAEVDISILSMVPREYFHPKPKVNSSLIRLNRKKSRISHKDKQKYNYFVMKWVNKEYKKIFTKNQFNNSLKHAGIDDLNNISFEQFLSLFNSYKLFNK
Excerpt: The adenosine library consisted of 59 compounds. The library was divided into 7 mixtures of 8-9 shape-diverse compounds and screened by the CrystaLEAD™ method. […] Equal volumes of each compound were mixed to assemble the mixture of […].
Typical usable data were 80-90% complete at 3.4-3.6 Å resolution with merging R-factors of 7-16%.

[7] = pH 6.5 (0.1 M NaPO4), S-2444 substrate, read-out: Ki (pH 6.5)
[8] = pH 7.4 (50 mM Tris), S-2444 substrate, read-out: Ki (pH 7.4)

Structure (SMILES)	binding at the urokinase active site seen in Fo-Fc electron density map [1]	pKa [3]	binding at the VanX active site seen in electron density map [5]	further results
Cc1nc(N)ccc1Br [Compound 5]	binder	6		Ki [2, 7]: > 500 µM; Ki [2, 8]: > 500 µM
Nc1ccc2cccc(O)c2n1 [Compound 19, 2-amino-8-hydroxyquinoline]	bound	7.3		binding at the urokinase active site seen in electron density map, 100 compound mixture ([1]; mixture of 100 compounds spiked with compound 19 at 180 μM, 1% DMSO, 4 hours 15 minutes soak): positive hit; Ki ([2]; Ki (pH 7.4), pH 7.4 (50 mM Tris), S-2444 substrate): 137 µM; Ki ([2]; Ki at pH 6.5, pH 6.5, restated in Example 3): 56 µM
Nc1ccc2c(c1)CC=N2 [Compound 22, 5-aminoindole]	found to bind	6		Ki [2, 7]: 200 µM; Ki [2, 8]: > 500 µM
Cc1ccc(N)nc1 [Compound 31]	found to bind	7		Ki ([2]; Ki (pH 6.5)): > 500 µM; Ki ([2]; Ki (pH 7.4)): > 500 µM
Nc1ccc2cccc(Nc3ncccn3)c2n1 [Compound 35, 8-aminopyrimidinyl-2-aminoquinoline]				bioavailability [4]: 30 to 40%
O=C(O)C1CCCC1 [Compound 36]			bound	
O=C(O)CCC1CCCC1 [Compound 37]			found to bind	
O=C(O)C(=O)CS [Compound 39]			bound	
N[C@@H](CS)C(=O)O [Compound 41]			binding	
OCC1OC(n2cnc3c(NCc4ccccc4)ncnc32)C(O)C1O (stereo not drawn) [Compound 44]				binding to ErmC′ seen in electron density map [6]: hits
OCC1OC(n2cnc3c(NC4CCCCC4)ncnc32)C(O)C1O (stereo not drawn) [Compound 45]				binding to ErmC′ seen in electron density map [6]: hits
